Marks after values point to notes of the source that are not given here. *1 amine or outer side, *2 acyl side, *3 side chain or, on linkers, in order; H or OH if unused. Where a SMILES comes first, the peptide text is derived from it. Bridges are numbered along the chain shown (N, C = ends). Maleimide(3,4-diyl) = O=C1NC(=O)C([*:2])=C1[*:1]
Columns and labels:
[1] = test system: N‐Myc/Aurora‐A interaction; conditions: competition co‐precipitation; cited from earlier work
Source text: (§1) Similarly, Weiss and co‐workers developed a series of conformation‐disrupting Aurora‐A inhibitors based on diaminopyrimidine and pyrazolopyrimidine scaffolds, such as CD532.[8]

[2] = test system: N‐Myc protein levels; conditions: cited from earlier work
Source text: as §1

[3] = circular dichroism; parameters: unit not given here; conditions: 25 mM Tris, 150 mM NaCl, 5 mM MgCl2; pH 7.5; 5 °C; 30-120 uM
[4] = target: T1, N‐Myc/Aurora‐A interaction (Aurora‐A122‐403‐C290A/C393A) (Homo sapiens, UniProt O14965, C290A/C393A); assay: competition fluorescence anisotropy (FA) assay against fluorescein labelled N‐Myc61‐89; type: binding; conditions: SD; also: equilibrated 2 h at room temperature
T1 construct: Aurora‐A 122‐403‐C290A/C393A protein was produced as described previously; made in house
T1 sequence (O14965 122-403 C290A/C393A): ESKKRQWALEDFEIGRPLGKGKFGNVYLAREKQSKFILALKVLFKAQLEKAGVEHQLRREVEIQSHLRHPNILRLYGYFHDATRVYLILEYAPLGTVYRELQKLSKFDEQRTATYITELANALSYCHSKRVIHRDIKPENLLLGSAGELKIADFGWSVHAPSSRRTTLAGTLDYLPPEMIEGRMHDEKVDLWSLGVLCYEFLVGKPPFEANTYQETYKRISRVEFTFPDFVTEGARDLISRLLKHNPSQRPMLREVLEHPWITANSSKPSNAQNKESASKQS

[5] = test system: Aurora‐A and N‐Myc; conditions: in comparison to established allosteric Aurora‐A inhibitors; cited from earlier work
Source text: as §1

[6] = circular dichroism (CD) spectroscopy; type: physicochemical; conditions: 150 mM NaCl, 5 mM MgCl2, pH 7.5, 5 °C, n=2, free‐thiol (red) samples with 5 mol equivalents TCEP; for MRE222 (mean residue ellipticity at 222 nm): 25 mM Tris, mean ± SD, SD; for % Helicity (estimated): from MRE222 by equation 7, 25 mM Tris
Method in brief: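 Peptides at 30–120 μM in 25 mM Tris, 150 mM NaCl, 5 mM MgCl2, pH 7.5 (plus 5 mol eq. TCEP for free sulfhydryl peptides) were scanned in duplicate at 5 °C from 290 to 180 nm, 1 mm pathlength. Buffer-subtracted ellipticity gave mean residue ellipticity, and % helicity was estimated from MRE at 222 nm.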

Compound: O=C(O)c1ccc(Nc2ncc3c(n2)-c2ccc(Cl)cc2C(c2c(F)cccc2F)=NC3)cc1 [MLN8054]
- disruption of the N‐Myc/Aurora‐A interaction [1]: disrupted

Compound: O=C(Nc1ccc(Nc2nccc(Nc3cc(C4CCCC4)[nH]n3)n2)cc1)Nc1cccc(C(F)(F)F)c1 [CD532]
- N‐Myc protein levels in xenographs [2]: reduced N‐Myc protein levels

Compound: CSCC[C@H](NC(=O)[C@H](CCC(=O)O)NC(=O)[C@@H](NC(=O)[C@@H](NC(=O)[C@H](Cc1c[nH]c2ccccc12)NC(=O)[C@H](CO)NC(=O)[C@@H]1CCCN1C(=O)[C@@H]1CCCN1C(=O)[C@H](CCC(=O)O)NC(C)=O)C(C)C)[C@@H](C)O)C(=O)N[C@@H](CC(C)C)C(=O)N[C@@H](CC(C)C)C(=O)N[C@@H](CCC(=O)O)C(=O)N[C@@H](CC(N)=O)C(=O)N[C@H]1CSC2=C(SC[C@@H](C(=O)N3CCC[C@H]3C(=O)N[C@@H](C)C(=O)N[C@@H](CCC(=O)O)C(=O)N[C@@H](CCC(=O)O)C(N)=O)NC(=O)CNC(=O)[C@H](Cc3c[nH]c4ccccc34)NC(=O)[C@H](CC(C)C)NC1=O)C(=O)NC2=O [N‐Myc73‐94‐E86C/S90C (mal)] (Ac-EPPSWVTEMLLENCLWGCPAEE-NH2; linker 14-18 via Maleimide(3,4-diyl))
- helicity [3]: -5720
- IC50 [4]: 111 ± 18 µM

Compound: CN(C)C(=O)c1cc2cnc(Nc3ccc(C(=O)NCCCCCCOc4cccc5c4C(=O)N(C4CCC(=O)NC4=O)C5=O)cc3)nc2n1C1CCCC1 (centres unmarked) [HLB‐0532259]
- degradation of Aurora‐A and N‐Myc [5]: promote degradation of Aurora‐A and N‐Myc with superior potency

Compound: CSCC[C@H](NC(=O)[C@H](CCC(=O)O)NC(=O)[C@@H](NC(=O)[C@@H](NC(=O)[C@H](Cc1c[nH]c2ccccc12)NC(=O)[C@H](CO)NC(=O)[C@@H]1CCCN1C(=O)[C@@H]1CCCN1C(=O)[C@H](CO)NC(C)=O)C(C)C)[C@@H](C)O)C(=O)N[C@@H](CC(C)C)C(=O)N[C@@H](CC(C)C)C(=O)N[C@@H](CCC(=O)O)C(=O)N[C@@H](CC(N)=O)C(=O)N[C@@H](CCC(=O)O)C(=O)N[C@@H](CC(C)C)C(=O)N[C@@H](Cc1c[nH]c2ccccc12)C(=O)NCC(N)=O [N‐Myc73‐89‐E73S]
- helicity [3]: -5540
- MRE222 (mean residue ellipticity at 222 nm) [6]: −5541±66 deg cm^−1 dmol^−1 res^−1
- % Helicity (estimated) [6]: 17±1%
- IC50 [4]: 217 ± 13 µM

Compound: CSCC[C@H](NC(=O)[C@H](CCC(=O)O)NC(=O)[C@@H](NC(=O)[C@@H](NC(=O)[C@H](Cc1c[nH]c2ccccc12)NC(=O)[C@H](CO)NC(=O)[C@@H]1CCCN1C(=O)[C@@H]1CCCN1C(=O)[C@H](CCC(=O)O)NC(C)=O)C(C)C)[C@@H](C)O)C(=O)N[C@@H](CC(C)C)C(=O)N[C@@H](CC(C)C)C(=O)N[C@@H](CCC(=O)O)C(=O)N[C@H]1CSC2=C(SC[C@@H](C(=O)N[C@@H](CO)C(=O)N3CCC[C@H]3C(=O)N[C@@H](C)C(=O)N[C@@H](CCC(=O)O)C(=O)N[C@@H](CCC(=O)O)C(N)=O)NC(=O)[C@H](Cc3c[nH]c4ccccc34)NC(=O)[C@H](CC(C)C)NC(=O)[C@H](CCC(=O)O)NC1=O)C(=O)NC2=O [N‐Myc73‐94‐N85C/G89C (mal)] (Ac-EPPSWVTEMLLECELWCSPAEE-NH2; linker 13-17 via Maleimide(3,4-diyl))
- helicity [3]: -7220
- IC50 [4]: 49 ± 5 µM

Compound: CSCC[C@H](NC(=O)[C@H](CCC(=O)O)NC(=O)[C@@H](NC(=O)[C@@H](NC(=O)[C@H](Cc1c[nH]c2ccccc12)NC(=O)[C@H](CO)NC(=O)[C@@H]1CCCN1C(=O)[C@@H]1CCCN1C(=O)[C@H](CCC(=O)O)NC(C)=O)C(C)C)[C@@H](C)O)C(=O)N[C@@H](CC(C)C)C(=O)N[C@@H](CC(C)C)C(=O)N[C@@H](CCC(=O)O)C(=O)N[C@@H](CS)C(=O)N[C@@H](CCC(=O)O)C(=O)N[C@@H](CC(C)C)C(=O)N[C@@H](Cc1c[nH]c2ccccc12)C(=O)N[C@@H](CS)C(=O)N[C@@H](CO)C(=O)N1CCC[C@H]1C(=O)N[C@@H](C)C(=O)N[C@@H](CCC(=O)O)C(=O)N[C@@H](CCC(=O)O)C(N)=O [N‐Myc73‐94‐N85C/G89C (red)] (Ac-EPPSWVTEMLLECELWCSPAEE-NH2)
- helicity [3]: -4380
- MRE222 (mean residue ellipticity at 222 nm) [6]: −4383±64^[e] deg cm^−1 dmol^−1 res^−1
- % Helicity (estimated) [6]: 13±1%
- IC50 [4]: 123 ± 10 µM

Compound: Ac-SWVTEMLLENELWG-NH2 [N‐Myc76‐89]
- helicity [3]: -4340
- MRE222 (mean residue ellipticity at 222 nm) [6]: −4342±142 deg cm^−1 dmol^−1 res^−1
- % Helicity (estimated) [6]: 14±1%
- IC50 [4]: 215 ± 11 µM

Compound: CSCC[C@H](NC(=O)[C@H](CCC(=O)O)NC(=O)[C@@H](NC(=O)[C@@H](NC(=O)[C@H](Cc1c[nH]c2ccccc12)NC(=O)[C@H](CO)NC(=O)[C@@H]1CCCN1C(=O)[C@@H]1CCCN1C(=O)[C@H](CCC(=O)O)NC(C)=O)C(C)C)[C@@H](C)O)C(=O)N[C@@H](CC(C)C)C(=O)N[C@@H](CC(C)C)C(=O)N[C@@H](CCC(=O)O)C(=O)N[C@@H](CC(N)=O)C(=O)N[C@@H](CCC(=O)O)C(=O)N[C@@H](CC(C)C)C(=O)N[C@@H](Cc1c[nH]c2ccccc12)C(=O)NCC(=O)N[C@@H](CO)C(=O)N1CCC[C@H]1C(=O)N[C@@H](C)C(=O)N[C@@H](CCC(=O)O)C(=O)N[C@@H](CCC(=O)O)C(N)=O [N‐Myc73‐94]
- helicity [3]: -4240
- MRE222 (mean residue ellipticity at 222 nm) [6]: −4235±181 deg cm^−1 dmol^−1 res^−1
- % Helicity (estimated) [6]: 13±1%
- IC50 [4]: 199 ± 13 µM

Compound: CSCC[C@H](NC(=O)[C@H](CCC(=O)O)NC(=O)[C@@H](NC(=O)[C@@H](NC(=O)[C@H](Cc1c[nH]c2ccccc12)NC(=O)[C@H](CO)NC(=O)[C@@H]1CCCN1C(=O)[C@@H]1CCCN1C(=O)[C@H](CCC(=O)O)NC(C)=O)C(C)C)[C@@H](C)O)C(=O)N[C@@H](CC(C)C)C(=O)N[C@@H](CC(C)C)C(=O)N[C@@H](CCC(=O)O)C(=O)N[C@@H](CC(N)=O)C(=O)N[C@@H](CS)C(=O)N[C@@H](CC(C)C)C(=O)N[C@@H](Cc1c[nH]c2ccccc12)C(=O)NCC(=O)N[C@@H](CS)C(=O)N1CCC[C@H]1C(=O)N[C@@H](C)C(=O)N[C@@H](CCC(=O)O)C(=O)N[C@@H](CCC(=O)O)C(N)=O [N‐Myc73‐94‐E86C/S90C (red)] (Ac-EPPSWVTEMLLENCLWGCPAEE-NH2)
- helicity [3]: -6400
- MRE222 (mean residue ellipticity at 222 nm) [6]: −6397±64^[e] deg cm^−1 dmol^−1 res^−1
- % Helicity (estimated) [6]: 18±1%
- IC50 [4]: 203 ± 4 µM

Compound: CSCC[C@H](NC(=O)[C@H](CCC(=O)O)NC(=O)[C@@H](NC(=O)[C@@H](NC(=O)[C@H](Cc1c[nH]c2ccccc12)NC(=O)[C@H](CO)NC(=O)[C@@H]1CCCN1C(=O)[C@@H]1CCCN1C(=O)[C@H](CCC(=O)O)NC(C)=O)C(C)C)[C@@H](C)O)C(=O)N[C@@H](CC(C)C)C(=O)N[C@@H](CC(C)C)C(=O)N[C@@H](CCC(=O)O)C(=O)N[C@H]1CSSC[C@@H](C(=O)N[C@@H](CO)C(=O)N2CCC[C@H]2C(=O)N[C@@H](C)C(=O)N[C@@H](CCC(=O)O)C(=O)N[C@@H](CCC(=O)O)C(N)=O)NC(=O)[C@H](Cc2c[nH]c3ccccc23)NC(=O)[C@H](CC(C)C)NC(=O)[C@H](CCC(=O)O)NC1=O [N‐Myc73‐94‐N85C/G89C (ox)] (Ac-EPPSWVTEMLLECELWCSPAEE-NH2; disulfide 13-17)
- helicity [3]: -5260
- MRE222 (mean residue ellipticity at 222 nm) [6]: −5255±217 deg cm^−1 dmol^−1 res^−1
- % Helicity (estimated) [6]: 15±1%
- IC50 [4]: 130 ± 9 µM

Compound: CSCC[C@H](NC(=O)[C@H](CCC(=O)O)NC(=O)[C@@H](NC(=O)[C@@H](NC(=O)[C@H](Cc1c[nH]c2ccccc12)NC(=O)[C@H](CO)NC(=O)[C@@H]1CCCN1C(=O)[C@@H]1CCCN1C(=O)[C@H](CCC(=O)O)NC(C)=O)C(C)C)[C@@H](C)O)C(=O)N[C@@H](CC(C)C)C(=O)N[C@@H](CC(C)C)C(=O)N[C@@H](CCC(=O)O)C(=O)N[C@@H](CC(N)=O)C(=O)N[C@H]1CSSC[C@@H](C(=O)N2CCC[C@H]2C(=O)N[C@@H](C)C(=O)N[C@@H](CCC(=O)O)C(=O)N[C@@H](CCC(=O)O)C(N)=O)NC(=O)CNC(=O)[C@H](Cc2c[nH]c3ccccc23)NC(=O)[C@H](CC(C)C)NC1=O [N‐Myc73‐94‐E86C/S90C (ox)] (Ac-EPPSWVTEMLLENCLWGCPAEE-NH2; disulfide 14-18)
- helicity [3]: -7450
- MRE222 (mean residue ellipticity at 222 nm) [6]: −7454±130 deg cm^−1 dmol^−1 res^−1
- % Helicity (estimated) [6]: 21±1%
- IC50 [4]: 172 ± 23 µM
